The results in this text go back to article PMC9011347, “Small-Molecule Inhibitors Targeting Lipolysis in Human Adipocytes” (Journal of the American Chemical Society, 2022).

This test concerns primary human adipocytes. Briefly: Lipolysis in primary human adipocytes. The format is cell-based. Here is the method:
Figure 3 NG-497 inhibits lipolysis in human SGBS and primary human adipocytes. SGBS adipocytes were preincubated with NG-497 for 1 h at the indicated concentrations. Subsequently, lipolysis was stimulated with isoproterenol (1 μM) and (a) FA and (b) glycerol release was determined after 1 h using commercial kits. (c) Dose-dependent inhibition of isoproterenol-stimulated FA release from SGBS adipocytes by the HSL inhibitor 76-068 (HSLi). […] (e) DAG accumulation in SGBS adipocytes was analyzed by thin-layer chromatography (TLC) following 1 h incubation with HSLi (25 μM), NG-497 (40 μM), and a combination of both inhibitors. […] Subsequently, basal and Forskolin (5 μM)-stimulated release of radioactivity was determined via liquid scintillation over a period of 2 h in the presence or absence of NG-497 (40 μM). FA release was calculated based on FA concentrations in conditioned media after 2 h as determined using a commercial kit. […] Subsequently, the medium was changed and FA release was monitored over a period of 3 h under the indicated conditions. […] Statistical significance was determined via ANOVA followed by Bonferroni post hoc test (^#p < 0.05; ^##p < 0.01; ^###p < 0.001). […]
Released free fatty acids were quantified via NEFA C kit (Fujifilm Wako Chemicals, Neuss, Germany) and release of p-nitrophenol was measured at 405 nm. […]

Regarding `CCOc1ccc(-c2cc(OC)cc(C(=O)OC(C)C)n2)cc1` [NG-497], the activity at 40 µM (Homo sapiens, Adipocyte, primary adipocytes, 1 h preincubation with NG-497 40 μM, within the third hour after pretreatment, read-out: lipolytic activity regained after inhibitor removal) was about 40%. For the same compound, the “Forskolin-induced FA release” value (primary human adipocytes, NG-497 40 μM, Forskolin 5 μM, 2 h, [9,10-3H] oleic acid label) was “diminished Forskolin-induced FA release to basal level”.
